Some test systems named below: NCI-H460 lung; NCI-H226 lung; BT-549 breast; NCI-H522 lung; HCT-15 colon; MDA-MB-435; PC-3 prostate; MALME-3M melanoma; U251 CNS; SF-295 CNS.
Common to all, as to test: growth of human tumour cells (NCI), 48 h

Values joined by “and” are separate entries in the source; they are usually repeats but may differ in a detail not shown here. Identical values can stand only once.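 Exposure lasted 48 hours, with cells grown in 96-well plates and compounds tested at five concentrations. GI50 marks 50% less growth. TGI denotes the concentration required for complete inhibition of growth.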

Regarding `COc1cccc2c1C(=O)c1c(O)c3c(c(O)c1C2=O)C[C@@](O)(C(C)=O)C[C@@H]3OC1CC(O)C(O)C(C)O1` (stereo partly drawn), the TGI in the assay with NCI-H460 lung was 2.73 µM and 5.19 µM; with NCI-H226 lung, 4.77 µM and 1.58 µM; in the assay with BT-549 breast it was 20.1 µM; in the assay on NCI-H522 lung, 9.44 µM and 7.38 µM; in the assay on HCT-15 colon, 9.84 µM and 14.6 µM; in the assay on MDA-MB-435, 27.7 µM. The TGI was 31.9 µM in the assay on PC-3 prostate; 6.66 µM and 5.96 µM in the assay on MALME-3M melanoma.

Regarding `Cc1cc(S(=O)(=O)Nc2nc3ccccc3[nH]2)c(SCc2ccccc2)cc1Cl`, the GI50 in the assay with NCI-H460 lung is more than 100 µM; with NCI-H226 lung, 43.8 µM; with BT-549 breast, more than 100 µM; in the assay on NCI-H522 lung it was more than 100 µM; in the assay on U251 CNS, 14.9 µM; in the assay on HCT-15 colon, more than 100 µM. Besides, the GI50 in the assay on MDA-MB-435 is more than 100 µM; in the assay on PC-3 prostate it was more than 100 µM; in the assay on SF-295 CNS it was 21.3 µM. Besides, the TGI with NCI-H460 lung was more than 100 µM; in the assay on NCI-H226 lung, more than 100 µM; in the assay on BT-549 breast, more than 100 µM; in the assay on NCI-H522 lung, more than 100 µM; in the assay with U251 CNS, 50.7 µM; with HCT-15 colon, more than 100 µM. For the same compound, the TGI in the assay on MDA-MB-435, in the assay with PC-3 prostate and in the assay on SF-295 CNS was more than 100 µM each time.

For `COc1ccccc1Nc1nc2ccccc2c2occc12`, the GI50 was 8.09 µM with NCI-H460 lung; 15.3 µM in the assay with BT-549 breast; 12 µM in the assay on NCI-H522 lung; 14.5 µM in the assay with U251 CNS; 10.5 µM in the assay with HCT-15 colon; 19.1 µM with MDA-MB-435. Also, the GI50 in the assay with PC-3 prostate was 18.8 µM; in the assay on SF-295 CNS it was 20.1 µM. The TGI in the assay with NCI-H460 lung was 18 µM; in the assay with BT-549 breast, 32.1 µM; with NCI-H522 lung, 29.7 µM; in the assay with U251 CNS, more than 50 µM; in the assay on HCT-15 colon, 27 µM; with MDA-MB-435 it was more than 50 µM. For the same compound, the TGI in the assay with PC-3 prostate and with SF-295 CNS was more than 50 µM throughout.

On to `Cc1ccc(S(=O)(=O)N[C@@H](Cc2ccccc2)C(=O)CCl)cc1`, for which the GI50 is 21.8 µM in the assay on NCI-H460 lung; 6.64 µM with BT-549 breast; 11.5 µM in the assay with NCI-H522 lung; 9.3 µM in the assay with U251 CNS; 10.8 µM with HCT-15 colon; 5.54 µM in the assay on PC-3 prostate. Besides, in the assay with MALME-3M melanoma, the GI50 was 18.1 µM. For the same compound, the TGI with NCI-H460 lung is more than 100 µM; with BT-549 breast, 24 µM; with NCI-H522 lung, 37.1 µM; in the assay with U251 CNS, 24.5 µM; in the assay with HCT-15 colon, 27.5 µM; in the assay with MDA-MB-435, 30.7 µM. For the same compound, the TGI in the assay with PC-3 prostate was found to be 22.6 µM; with SF-295 CNS it was 41.7 µM; in the assay on MALME-3M melanoma, 40 µM.

As for `COc1cc2oc(-c3cccc(C(=O)Nc4ccc(C)cc4)c3)cc(=O)c2c(OC)c1OC`, the GI50 in the assay with NCI-H460 lung is 1.47 µM; in the assay with NCI-H226 lung, 6.65 µM; with BT-549 breast, 1.71 µM; in the assay with NCI-H522 lung, 2.67 µM; in the assay on U251 CNS, 3.26 µM; in the assay with HCT-15 colon it was 1.96 µM. For the same compound, the GI50 with MDA-MB-435 is 2.26 µM; with PC-3 prostate, 3.49 µM; in the assay on SF-295 CNS it was 1.63 µM. Besides, the TGI is more than 100 µM with NCI-H460 lung; more than 100 µM in the assay on NCI-H226 lung; 54.5 µM in the assay with BT-549 breast; 9.31 µM in the assay on NCI-H522 lung; more than 100 µM with U251 CNS; more than 100 µM in the assay with HCT-15 colon. For the same compound, the TGI in the assay with MDA-MB-435 is 7.64 µM; in the assay on PC-3 prostate, more than 100 µM; with SF-295 CNS, 3.56 µM.

On to `OCC#CCCCCOCC#Cc1ccccc1C#CCOCCCCC#CCO`, for which the GI50 in the assay with NCI-H460 lung was 31.3 µM; in the assay on NCI-H226 lung, 23.7 µM; in the assay on BT-549 breast, 16.8 µM; in the assay with NCI-H522 lung, 71.3 µM; in the assay on U251 CNS it was 17.2 µM; with HCT-15 colon, 16.3 µM. In addition, the GI50 is 20 µM in the assay with MDA-MB-435, 40.6 µM with PC-3 prostate and 19.2 µM in the assay on SF-295 CNS. Also, the TGI is more than 100 µM in the assay with NCI-H460 lung; 59 µM in the assay with NCI-H226 lung; 41.2 µM in the assay with BT-549 breast; more than 100 µM in the assay on NCI-H522 lung; 35.2 µM in the assay on U251 CNS; 34.7 µM with HCT-15 colon. Besides, the TGI with MDA-MB-435 was determined as 45.9 µM; in the assay with PC-3 prostate, 98.4 µM; in the assay with SF-295 CNS, 56.5 µM.

As to `O=C(Nc1nc(-c2ccccc2)cs1)c1cc(O)c(O)c(O)c1`, the GI50 is 3.43 µM in the assay on NCI-H460 lung; 8.08 µM in the assay with NCI-H226 lung; 3.46 µM in the assay on BT-549 breast; 0.337 µM in the assay with NCI-H522 lung; 2.88 µM in the assay on U251 CNS; 3.14 µM with HCT-15 colon. The values for the GI50 in the assay on MDA-MB-435, in the assay with SF-295 CNS and in the assay on MALME-3M melanoma were 5.59 µM, 6.97 µM and 8.86 µM, respectively. In addition, the TGI is 17 µM in the assay with NCI-H460 lung; 54.8 µM with NCI-H226 lung; 31.4 µM with BT-549 breast; 1.23 µM in the assay with NCI-H522 lung; 21 µM with U251 CNS; more than 100 µM with HCT-15 colon. For the same compound, the TGI in the assay with MDA-MB-435 was determined as 56.2 µM; in the assay on SF-295 CNS, 55.1 µM; in the assay with MALME-3M melanoma it was 71.1 µM.

As for `CCCCCCCC(=O)NS(=O)(=O)c1ccccc1`, the TGI in the assay on NCI-H460 lung, in the assay on BT-549 breast, in the assay with NCI-H522 lung, in the assay with U251 CNS, with HCT-15 colon and in the assay on MDA-MB-435 was more than 100 µM throughout. The TGI in the assay with PC-3 prostate, with SF-295 CNS and in the assay on MALME-3M melanoma was more than 100 µM throughout.

Turning to `COc1ccc(C2CC(c3cccc(OC)c3)=NN2C(=O)c2cc(OC)c(OC)c(OC)c2)cc1` (stereo not drawn), the GI50 was 1.75 µM with NCI-H460 lung; 2.05 µM with BT-549 breast; 2.66 µM in the assay with NCI-H522 lung; 3.04 µM with U251 CNS; 1.07 µM with HCT-15 colon; 0.307 µM with MDA-MB-435. In addition, the GI50 in the assay with PC-3 prostate is 0.882 µM; with SF-295 CNS, 0.654 µM. In addition, the TGI is more than 100 µM in the assay with NCI-H460 lung; more than 100 µM in the assay with NCI-H226 lung; more than 100 µM in the assay with BT-549 breast; more than 22.1 µM in the assay with NCI-H522 lung; more than 100 µM with U251 CNS; more than 100 µM in the assay on HCT-15 colon. The TGI is 1.71 µM in the assay on MDA-MB-435, more than 100 µM in the assay on PC-3 prostate and more than 100 µM in the assay on SF-295 CNS.

These data come from PubChem BioAssay (NCI).
